Measurements: patent US10953027B2, “Active agents and methods of their use for the treatment of metabolic disorders and nonalcoholic fatty liver disease” (Flagship Pioneering Innovations V, Inc., priority 2018, dated 2021)

How the values were obtained:
Type in all cases: in vitro ADME
[1] = Assay 1. Stability in Simulated Gastric Fluid (SGF); conditions: 1 μM, 37° C., SGF pH 1.6 with pepsin
Method in brief: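 Acylated compounds at a final 1 μM (diluted from 1 mM DMSO stock) were incubated at 37 °C in SGF of pH 1.6 NaCl buffer with FaSSIF powder and 0.1 mg/mL pepsin. Aliquots were quenched with acetonitrile at T0 and regular intervals, and degradation rates were determined by LC/MS.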

[2] = Assay 2. Stability in Simulated Intestinal Fluid (SIF); conditions: 1 μM, 37° C., SIF pH 6.7 with pancreatin
Method in brief: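 Acylated compounds at 1 μM (from 1 mM DMSO stock) in fresh SIF: FaSSIF with pancreatin in pH 6.7 phosphate buffer, agitated at 37 °C. Aliquots from T0 onward quenched with 1 volume acetonitrile; LC/MS gives degradation rates.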

[3] = Assay 3. Fecal Incubation Stability; conditions: 1 or 10 μM, human fecal slurry, anaerobic

Compound	Assay 1 (SGF) (% Remaining @ 1 hours) [1]	Assay 2 (SIF) (% @ Remaining 4 hours) [2]	Assay 3 (% Remaining at 24 h) [3]
CCC(=O)O[C@H]1[C@H](OC(=O)CCc2c[nH]c3ccccc23)OC[C@@H](OC(=O)CC)[C@H]1OC(=O)CC [Compound 130, (2S,3R,4R,5R)-3,4,5-tris(propanoyloxy)oxan-2-yl 3-(1H-indol-3-yl)propanoate]	B (B: 25-75% of the tested compound remaining)	A (A: <25% of the tested compound remaining)	A (A: <25% of the tested compound remaining)
CCC(=O)O[C@H]1OC[C@@H](OC(=O)CC)[C@@H](OC(=O)CC)[C@H]1OC(=O)CC [Compound 133, (2R,3R,4R,5R)-3,4,5-tris(propanoyloxy)oxan-2-yl Propanoate]	C (C: >75% of the tested compound remaining)	A (A: <25% of the tested compound remaining)	A (A: <25% of the tested compound remaining)
CCC(=O)O[C@@H]1[C@@H](OC(=O)CC)[C@H](C)O[C@@H](OC(=O)/C=C/c2c[nH]c3ccccc23)[C@@H]1OC(=O)CC [Compound 134, (2S,3R,4R,5S,6S)-6-methyl-3,4,5-tris(propanoyloxy)oxan-2-yl (2E)-3-(1H-indol-3-yl)prop-2-enoate]	C (C: >75% of the tested compound remaining)	B (B: 25-75% of the tested compound remaining)	A (A: <25% of the tested compound remaining)
CCC(=O)O[C@@H]1[C@@H](OC(=O)CC)[C@H](OC(=O)Cc2c[nH]c3ccccc23)OC[C@@H]1OC(=O)CC [Compound 135, (3S,4S,5R,6S)-6-{[2-(1H-indol-3-yl)acetyl]oxy}-4,5-bis(propanoyloxy)oxan-3-yl Propanoate]	C (C: >75% of the tested compound remaining)	A (A: <25% of the tested compound remaining)	A (A: <25% of the tested compound remaining)
CCC(=O)O[C@@H]1OC[C@@H](OC(=O)CC)[C@@H](OC(=O)CC)[C@H]1OC(=O)CC [Compound 136, (2S,3R,4R,5R)-3,4,5-tris(propanoyloxy)oxan-2-yl Propanoate]	C (C: >75% of the tested compound remaining)	A (A: <25% of the tested compound remaining)	A (A: <25% of the tested compound remaining)
CCC(=O)O[C@@H]1[C@H](OC(=O)CC)COC(O)[C@@H]1OC(=O)CC (stereo partly drawn) [Compound 137, (3R,4R,5R)-2-hydroxy-4,5-bis(propanoyloxy)oxan-3-yl Propanoate]	C (C: >75% of the tested compound remaining)	B (B: 25-75% of the tested compound remaining)	B (B: 25-75% of the tested compound remaining)
CCC(=O)O[C@H]1[C@H](OC(=O)Cc2c[nH]c3ccccc23)OC[C@@H](OC(=O)CC)[C@H]1OC(=O)CC [Compound 138, (2S,3R,4R,5R)-2-{[2-(1H-indol-3-yl)acetyl]oxy}-4,5-bis(propanoyloxy)oxan-3-yl Propanoate]	C (C: >75% of the tested compound remaining)	A (A: <25% of the tested compound remaining)	A (A: <25% of the tested compound remaining)
CCC(=O)O[C@@H]1[C@@H](OC(=O)CC)[C@H](C)O[C@H](OC(=O)/C=C/c2c[nH]c3ccccc23)[C@@H]1OC(=O)CC [Compound 139, (2R,3R,4R,5S,6S)-6-methyl-3,4,5-tris(propanoyloxy)oxan-2-yl (2E)-3-(1H-indol-3-yl)prop-2-enoate]	B (B: 25-75% of the tested compound remaining)	A (A: <25% of the tested compound remaining)	B (B: 25-75% of the tested compound remaining)
CCC(=O)O[C@@H]1[C@@H](OC(=O)CC)[C@@H](OC(=O)Cc2c[nH]c3ccccc23)OC[C@@H]1OC(=O)CC [Compound 140, (3S,4S,5R,6R)-6-{[2-(1H-indol-3-yl)acetyl]oxy}-4,5-bis(propanoyloxy)oxan-3-yl Propanoate]	C (C: >75% of the tested compound remaining)	A (A: <25% of the tested compound remaining)	A (A: <25% of the tested compound remaining)
CCC(=O)OC[C@H]1O[C@H](OC(=O)CCc2c[nH]c3ccccc23)[C@H](OC(=O)CC)[C@@H](OC(=O)CC)[C@@H]1OC(=O)CC [Compound 141, [(2R,3R,4S,5R,6R)-6-{[3-(1H-indol-3-yl)propanoyl]oxy}-3,4,5-tris(propanoyloxy)oxan-2-yl]methyl Propanoate]	C (C: >75% of the tested compound remaining)	A (A: <25% of the tested compound remaining)	A (A: <25% of the tested compound remaining)
CCC(=O)OC[C@H]1O[C@@H](OC(=O)Cc2c[nH]c3ccccc23)[C@H](OC(=O)CC)[C@@H](OC(=O)CC)[C@@H]1OC(=O)CC [Compound 143, [(2R,3R,4S,5R,6S)-6-{[2-(1H-indol-3-yl)acetyl]oxy}-3,4,5-tris(propanoyloxy)oxan-2-yl]methyl Propanoate]	C (C: >75% of the tested compound remaining)	A (A: <25% of the tested compound remaining)	A (A: <25% of the tested compound remaining)
CCC(=O)OC[C@H]1O[C@@H](OC(=O)CCc2c[nH]c3ccccc23)[C@H](OC(=O)CC)[C@@H](OC(=O)CC)[C@@H]1OC(=O)CC [Compound 144, [(2R,3R,4S,5R,6S)-6-{[3-(1H-indol-3-yl)propanoyl]oxy}-3,4,5-tris(propanoyloxy)oxan-2-yl]methyl Propanoate]	C (C: >75% of the tested compound remaining)	A (A: <25% of the tested compound remaining)	A (A: <25% of the tested compound remaining)
CCC(=O)O[C@@H]1[C@@H](OC(=O)CC)[C@@H](OC(=O)CC)C(O)O[C@H]1C (stereo partly drawn) [Compound 145, (3R,4R,5S,6S)-2-hydroxy-6-methyl-4,5-bis(propanoyloxy)oxan-3-yl Propanoate]	C (C: >75% of the tested compound remaining)	A (A: <25% of the tested compound remaining)	C (C: >75% of the tested compound remaining)
CCC(=O)OC[C@H]1O[C@H](OC(=O)Cc2c[nH]c3ccccc23)[C@H](OC(=O)CC)[C@@H](OC(=O)CC)[C@@H]1OC(=O)CC [Compound 146, [(2R,3R,4S,5R,6R)-6-{[2-(1H-indol-3-yl)acetyl]oxy}-3,4,5-tris(propanoyloxy)oxan-2-yl]methyl Propanoate]	C (C: >75% of the tested compound remaining)	A (A: <25% of the tested compound remaining)	A (A: <25% of the tested compound remaining)
CCC(=O)O[C@@H]1[C@@H](OC(=O)CC)[C@H](C)O[C@@H](OC(=O)Cc2c[nH]c3ccccc23)[C@@H]1OC(=O)CC [Compound 147, (2S,3R,4R,5S,6S)-2-{[2-(1H-indol-3-yl)acetyl]oxy}-6-methyl-4,5-bis(propanoyloxy)oxan-3-yl Propanoate]	C (C: >75% of the tested compound remaining)	A (A: <25% of the tested compound remaining)	A (A: <25% of the tested compound remaining)
CCC(=O)O[C@@H]1[C@@H](OC(=O)CC)[C@@H](OC(=O)Cc2c[nH]c3ccccc23)OC[C@H]1OC(=O)CC [Compound 149, (2R,3R,4S,5R)-2-{[2-(1H-indol-3-yl)acetyl]oxy}-4,5-bis(propanoyloxy)oxan-3-yl Propanoate]	C (C: >75% of the tested compound remaining)	A (A: <25% of the tested compound remaining)	A (A: <25% of the tested compound remaining)
CCC(=O)O[C@@H]1[C@@H](OC(=O)CC)[C@@H](OC(=O)CCc2c[nH]c3ccccc23)OC[C@@H]1OC(=O)CC [Compound 158, (2R,3R,4S,5S)-3,4,5-tris(propanoyloxy)oxan-2-yl 3-(1H-indol-3-yl)propanoate]	C (C: >75% of the tested compound remaining)	A (A: <25% of the tested compound remaining)	A (A: <25% of the tested compound remaining)
O=C(Cc1c[nH]c2ccccc12)O[C@H]1OC[C@H](OC(=O)Cc2c[nH]c3ccccc23)[C@H](OC(=O)Cc2c[nH]c3ccccc23)[C@H]1OC(=O)Cc1c[nH]c2ccccc12 [Compound 180, (2R,3R,4S,5S)-3,4,5-tris({[2-(1H-indol-3-yl)acetyl]oxy})oxan-2-yl 2-(1H-indol-3-yl)acetate]	B (B: 25-75% of the tested compound remaining)	A (A: <25% of the tested compound remaining)	A (A: <25% of the tested compound remaining)
CO[C@H]1O[C@H](COC(C)=O)[C@@H](OC(C)=O)[C@H](OC(C)=O)[C@@H]1OC(C)=O [Compound 193, (2R,3R,4S,5S,6S)-2-(acetoxymethyl)-6-methoxytetrahydro-2H-pyran-3,4,5-triyl Triacetate]	C (C: >75% of the tested compound remaining)	C (C: >75% of the tested compound remaining)	B (B: 25-75% of the tested compound remaining)
